Consider 4 molecules from patent US7371551B1, “Feedback-resistant homoserine transsuccinylases” (priority 2002, dated 2008).

Positions count from the first letter of the chain named.

In data set [1] the target is T1, E. coli homoserine transsuccinylase (MetA, SEQ ID No. 2) variant pKP446, Tyr294 replaced with Cys (Escherichia coli, UniProt P07623, Y294C).
T1 construct: made in house; host or cells: E. coli W3110 (ATCC 27325), cell extract
The experiment in a line: Inhibition of homoserine transsuccinylase activity by SAM (cell extract, DTNB assay at 412 nm). Particulars: pH 7.5, read-out: Activity (%) in the presence of 1 mM SAM. It is filed as biochemical. As for the experimental part:
(§1) In order to determine the sensitivity of the activity of the different homoserine transsuccinylases to SAM, it is possible, for example, to carry out an activity test as described in Lee L. W. et al., J. Biol. Chem. 241, 5479-5480 (1966). In this method, the enzyme extract is incubated with homoserine and succinyl-CoA. After various times, a part of the test assay sample is stopped by adding it to a mixture of ethanol, water, and 5,5′-dithiobis(2-nitrobenzoic acid). The absorption is determined photometrically at 412 nm. The described test is suitable, for example, for determining the sensitivity of the homoserine transsuccinylases to SAM.
(§2) The influence of SAM on the activities of the different homoserine transsuccinylases was determined by quantifying the activity in the presence of different concentrations of SAM (Cl salt, Sigma). The cell extracts were grown and prepared as described in Example 3. The activity test was carried out as described in Lee L. W. et al., J. Biol. Chem. 241, 5479-5480 (1966), with the enzyme extract being incubated with 50 mM potassium phosphate buffer, pH 7.5, 3 mM homoserine and 0.3 mM succinyl-CoA. After various times, 100 μl volumes of test mixture were stopped by adding them in each case to a mixture of 400 μl of ethanol, 400 μl of water and 100 μl of 10 mM 5,5′-dithiobis(2-nitrobenzoic acid). After the resulting mixture had been incubated at room temperature for 5 minutes, the absorption was determined photometrically at 412 nm. After the protein concentration had been determined, the enzyme activity was calculated using the extinction coefficient. The Ki was determined as a measure of the ability of SAM to inhibit the activity.

Data set [2] deals with T2, E. coli homoserine transsuccinylase (MetA, SEQ ID No. 2) variant pSLmetA*0, amino acid 294 (Tyr) deleted (Escherichia coli, UniProt P07623, DEL294-294).
T2 construct: made in house; host or cells: E. coli W3110 (ATCC 27325), cell extract
T2 sequence (P07623 other isoform, or with tags, fused parts or gaps DEL294-294): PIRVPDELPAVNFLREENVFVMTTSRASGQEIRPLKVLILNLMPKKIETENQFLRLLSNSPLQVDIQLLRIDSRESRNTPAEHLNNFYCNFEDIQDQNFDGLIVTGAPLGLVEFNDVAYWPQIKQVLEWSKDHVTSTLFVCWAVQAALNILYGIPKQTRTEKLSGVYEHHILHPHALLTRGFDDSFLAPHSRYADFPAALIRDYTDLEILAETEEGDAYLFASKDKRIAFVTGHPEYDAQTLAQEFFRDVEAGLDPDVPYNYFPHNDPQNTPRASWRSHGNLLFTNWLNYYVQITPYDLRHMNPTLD
The data set is described as above. It is filed as biochemical. Particulars: pH 7.5, read-out: Activity (%) in the presence of 1 mM SAM. As for the experimental part: as §1, §2

For data set [3], the target named is T3, E. coli homoserine transsuccinylase (MetA, SEQ ID No. 2) variant pSLmetA*A, Tyr294 replaced with Ala (Escherichia coli, UniProt P07623, Y294A).
T3 construct: made in house; host or cells: E. coli W3110 (ATCC 27325), cell extract
T3 sequence (P07623 2-309 Y294A): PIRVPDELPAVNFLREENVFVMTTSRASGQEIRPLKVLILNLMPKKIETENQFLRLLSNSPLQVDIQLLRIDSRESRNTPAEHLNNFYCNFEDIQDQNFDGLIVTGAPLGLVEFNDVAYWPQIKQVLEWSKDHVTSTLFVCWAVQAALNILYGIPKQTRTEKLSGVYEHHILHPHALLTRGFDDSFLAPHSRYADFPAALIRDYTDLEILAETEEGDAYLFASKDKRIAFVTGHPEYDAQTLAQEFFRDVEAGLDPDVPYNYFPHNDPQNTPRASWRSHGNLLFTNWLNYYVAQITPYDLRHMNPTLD
Described as above. It is filed as biochemical. Particulars: pH 7.5, read-out: Activity (%) in the presence of 1 mM SAM. As for the experimental part: as §1, §2

Data set [4] concerns the target T4, E. coli homoserine transsuccinylase (MetA, SEQ ID No. 2) variant pSLmetA*K, Tyr294 replaced with Lys (Escherichia coli, UniProt P07623, Y294K).
T4 construct: made in house; host or cells: E. coli W3110 (ATCC 27325), cell extract
Described as above. It is filed as biochemical. Particulars: pH 7.5, read-out: Activity (%) in the presence of 1 mM SAM. As for the experimental part:
as §1, §2

Data set [5] addresses T5, E. coli homoserine transsuccinylase (MetA, SEQ ID No. 2) variant pSLmetA*L, Tyr294 replaced with Leu (Escherichia coli, UniProt P07623, Y294L).
T5 construct: made in house; host or cells: E. coli W3110 (ATCC 27325), cell extract
The description is as above. It is filed as biochemical. Particulars: pH 7.5, read-out: Activity (%) in the presence of 1 mM SAM. As for the experimental part:
as §1, §2

Data set [6] concerns the target T6, E. coli homoserine transsuccinylase (MetA, SEQ ID No. 2) variant pSLmetA*P, Tyr294 replaced with Pro (Escherichia coli, UniProt P07623, Y294P).
T6 construct: made in house; host or cells: E. coli W3110 (ATCC 27325), cell extract
Described as above. Particulars: pH 7.5, read-out: Activity (%) in the presence of 1 mM SAM. It is filed as biochemical. As for the experimental part: as §1, §2

In data set [7] the target is T7, E. coli homoserine transsuccinylase (MetA, SEQ ID No. 2) variant pSLmetA*Q, Tyr294 replaced with Gln (Escherichia coli, UniProt P07623, Y294Q).
T7 construct: made in house; host or cells: E. coli W3110 (ATCC 27325), cell extract
T7 sequence (P07623 2-309 Y294Q): as the sequence (P07623 2-309 Y294A) above, with A293Q counted along it
Described as above. Particulars: pH 7.5, read-out: Activity (%) in the presence of 1 mM SAM. It is filed as biochemical. As for the experimental part: as §1, §2

Data set [8] has as its target T8, E. coli homoserine transsuccinylase (MetA, SEQ ID No. 2) variant pSLmetAN, Asp101 replaced with Asn (Escherichia coli, UniProt P07623, D101N).
T8 construct: made in house; host or cells: E. coli W3110 (ATCC 27325), cell extract
Described as above. It is filed as biochemical. Particulars: pH 7.5, read-out: Activity (%) in the presence of 1 mM SAM. The procedure:
as §1, §2

Data set [9] concerns the target T1, E. coli homoserine transsuccinylase (MetA, SEQ ID No. 2) variant pKP446, Tyr294 replaced with Cys. The experiment in a line: biochemical. Particulars: pH 7.6, read-out: Activity (%) in the presence of 1 mM L-methionine. The source says:
(§3) Any method which enables the activity of the enzyme to be determined in the presence of L-methionine or SAM can be used for determining the sensitivity of the homoserine transsuccinylase to L-methionine and/or SAM. For example, the homoserine transsuccinylase activity can be determined by following the method described by Kredich and Tomkins for determining the activity of serine acetyltransferases (Kredich N. M. and Tomkins G. M., J. Biol. Chem. 241, 4955-4965 (1966)). The enzyme activity is measured in an assay sample which contains homoserine and succinyl-CoA. The reaction is started by adding enzyme and monitored in a spectrophotometer by way of the decrease in the extinction at 232 nm which results from cleavage of the thioester bond in the succinyl-coenzyme A. The described test is suitable for determining the sensitivity of the homoserine transsuccinylases to methionine. The inhibition of homoserine transsuccinylase activity is tested in the presence of different concentrations of L-methionine in the reaction mixture.
(§4) The activity, and the influence of L-methionine on the activity, of the different homoserine transsuccinylases were determined by means of an enzyme test using cell extracts in which the respective proteins had been produced. For this, the corresponding plasmids, encoding altered homoserine transsuccinylases, were introduced, by transformation, into the E. coli strain W3110 (ATCC 27325) using methods known to the skilled person. The transformation mixture was spread on LB-tetracycline agar plates (10 g of tryptone/l, 5 g of yeast extract/l, 5 g of NaCl/l, 15 g of agar/l and 15 mg of tetracycline/l) and incubated at 37° C. overnight. The resulting transformants were grown in SM1 medium (for 1 l of medium: CaCl2×2H2O, 0.0147 g, MgSO4×7H2O, 0.3 g, Na2MoO4×2H2O, 0.15 mg, H3BO3, 2.5 mg, CoCl2×6H2O, 0.7 mg, CuSO4×5H2O, 0.25 mg, MnCl2×4H2O, 1.6 mg, ZnSO4×7H2O, 0.3 mg, KH2PO4, 3.0 g, K2HPO4, 12.0 g, (NH4)2SO4, 5 g, NaCl, 0.6 g, FeSO4×7H2O, 0.002 g, Na3-citrate×2H2O, 1 g, glucose, 5 g, tryptone, 1 g, yeast extract, 0.5 g), centrifuged down at an absorption of approx. 0.8 at 600 nm, washed in 50 mM Tris pH 7.5, and centrifuged down once again. The cells were resuspended in 50 mM Tris/Cl, pH 7.5, 2 mM dithiothreitol, 0.5 mM phenylmethylsulfonyl fluoride and disrupted in a French press. The supernatant from a further centrifugation was used as the enzyme extract in the test. The enzyme activity was determined, in a mixture containing 50 mM Tris/Cl, pH 7.6, 1 mM homoserine and 0.1 mM succinyl-CoA, by photometrically quantifying, by means of the decrease in the extinction at 232 nm, the coenzyme A formed in the reaction, following the method described by Kredich and Tomkins for determining the activity of serine acetyltransferases (Kredich N. M. and Tomkins G. M., J. Biol. Chem. 241, 4955-4965 (1966)). The effect of added L-methionine on the activity was determined and the inhibitability was quantified as a Ki value. The Ki which is determined is the concentration of L-methionine at which the activity of the homoserine transsuccinylase is only 50% of its activity in the absence of L-methionine.

Data set [10] concerns the target T2, E. coli homoserine transsuccinylase (MetA, SEQ ID No. 2) variant pSLmetA*0, amino acid 294 (Tyr) deleted. The experiment in a line: biochemical. Particulars: pH 7.6, read-out: Activity (%) in the presence of 1 mM L-methionine.
Description: as §3, §4

Data set [11] addresses T3, E. coli homoserine transsuccinylase (MetA, SEQ ID No. 2) variant pSLmetA*A, Tyr294 replaced with Ala. Briefly: biochemical. Particulars: pH 7.6, read-out: Activity (%) in the presence of 1 mM L-methionine.
Description: as §3, §4

The target of data set [12] is T4, E. coli homoserine transsuccinylase (MetA, SEQ ID No. 2) variant pSLmetA*K, Tyr294 replaced with Lys. The experiment in a line: biochemical. Particulars: pH 7.6, read-out: Activity (%) in the presence of 1 mM L-methionine.
Description: as §3, §4

For data set [13], the target named is T5, E. coli homoserine transsuccinylase (MetA, SEQ ID No. 2) variant pSLmetA*L, Tyr294 replaced with Leu. Briefly: biochemical. Particulars: pH 7.6, read-out: Activity (%) in the presence of 1 mM L-methionine.
Description: as §3, §4

Data set [14] deals with T6, E. coli homoserine transsuccinylase (MetA, SEQ ID No. 2) variant pSLmetA*P, Tyr294 replaced with Pro. Briefly: biochemical. Particulars: pH 7.6, read-out: Activity (%) in the presence of 1 mM L-methionine.
Description: as §3, §4

Data set [15] has as its target T7, E. coli homoserine transsuccinylase (MetA, SEQ ID No. 2) variant pSLmetA*Q, Tyr294 replaced with Gln. Briefly: biochemical. Particulars: pH 7.6, read-out: Activity (%) in the presence of 1 mM L-methionine.
Description: as §3, §4

Data set [16] has as its target T8, E. coli homoserine transsuccinylase (MetA, SEQ ID No. 2) variant pSLmetAN, Asp101 replaced with Asn. Briefly: biochemical. Particulars: pH 7.6, read-out: Activity (%) in the presence of 1 mM L-methionine.
Description: as §3, §4

The test system of data set [17] is homoserine transsuccinylase. The experiment in a line: Homoserine transsuccinylase enzyme test using cell extracts, decrease in extinction at 232 nm, with and without L-methionine. It is filed as biochemical, E. coli. Particulars: for Activity (%) in the presence of 1 mM L-methionine: activity in the absence of L-methionine corresponds to 100%; for Activity (U/mg): cell extract of E. coli W3110 transformants, 1 mM homoserine, 0.1 mM succinyl-CoA, 50 mM Tris/Cl pH 7.6; for Ki: concentration of L-methionine at which activity is only 50% of activity in its absence.
Description: as §3, §4

The subject of data set [18] is homoserine transsuccinylase. Briefly: Homoserine transsuccinylase activity test (Lee et al.), 5,5'-dithiobis(2-nitrobenzoic acid), absorption at 412 nm, with and without SAM. It is filed as biochemical, E. coli. Particulars: for Activity (%) in the presence of 1 mM SAM: activity in the absence of SAM corresponds to 100%; for Ki: SAM (Cl salt, Sigma) as inhibitor; for Activity (U/mg): cell extract, 3 mM homoserine, 0.3 mM succinyl-CoA, 50 mM potassium phosphate buffer pH 7.5. The procedure: as §1, §2

T8 sequence (P07623 2-309 D101N): as the sequence (P07623 2-309 Y294A) above, with D100N, A293Y counted along it
T1 sequence (P07623 2-309 Y294C): as the sequence (P07623 2-309 Y294A) above, with A293C counted along it
T6 sequence (P07623 2-309 Y294P): as the sequence (P07623 2-309 Y294A) above, with A293P counted along it
T4 sequence (P07623 2-309 Y294K): as the sequence (P07623 2-309 Y294A) above, with A293K counted along it
T5 sequence (P07623 2-309 Y294L): as the sequence (P07623 2-309 Y294A) above, with A293L counted along it

In the case of `C[S+](CC[C@H](N)C(=O)[O-])C[C@H]1O[C@@H](n2cnc3c(N)ncnc32)[C@H](O)[C@@H]1O` (stereo partly shown) [SAM, S-Adenosylmethionine], the activity at 1000 µM is 92% in data set [1]; 96% in data set [2]; 95% in [3]; 90% in data set [4]; 80% in data set [5]; 98% in [6]. Besides, the activity at 1000 µM in data set [7] was 87%; in data set [8], 91%.
Turning to `CSCC[C@H](N)C(=O)O` [L-methionine], the activity at 1000 µM stood at 96% in data set [9]; 98% in [10]; 94% in data set [11]; 92% in data set [12]; 89% in data set [13]; 91% in [14]. In addition, the activity at 1000 µM in data set [15] is 95%; in [16] it was 86%.

B1: pSLmetAA: MetA variant with Ala instead of Asp at position 101 (protein, UniProt P07623 2-309, looked up, variant D101A)
Homoserine …: PIRVPDELPAVNFLREENVFVMTTSRASGQEIRPLKVLILNLMPKKIETENQFLRLLSNSPLQVDIQLLRIDSRESRNTPAEHLNNFYCNFEDIQDQNFAGLIVTGAPLGLVEFNDVAYWPQIKQVLEWSKDHVTSTLFVCWAVQAALNILYGIPKQTRTEKLSGVYEHHILHPHALLTRGFDDSFLAPHSRYADFPAALIRDYTDLEILAETEEGDAYLFASKDKRIAFVTGHPEYDAQTLAQEFFRDVEAGLDPDVPYNYFPHNDPQNTPRASWRSHGNLLFTNWLNYYVYQITPYDLRHMNPTLD
The term Ki denotes a dissociation constant, usually derived from enzyme kinetics or from competition with a known ligand. For B1, in data set [17], the “Activity (%) in the presence of 1 mM L-methionine” value is listed as 96%, the “Activity (U/mg)” value was determined as 0.031 U/mg and the Ki was 6 mM. In addition, in data set [18], the “Activity (%) in the presence of 1 mM SAM” value turned out to be 90%, the Ki stood at 8 mM and the “Activity (U/mg)” value is 0.20 U/mg.

B2: pSLmetAI: MetA variant with Ile instead of Asp at position 101 (protein, UniProt P07623 2-309, looked up, variant D101I)
Homoserine …: B1 Homoserine … with A100I
Consider B2, for which, in data set [17], the “Activity (%) in the presence of 1 mM L-methionine” value came to 95%, the “Activity (U/mg)” value turned out to be 0.107 U/mg and the Ki was 9.5 mM. In [18], the “Activity (%) in the presence of 1 mM SAM” value was 93%, the Ki was 12 mM and the “Activity (U/mg)” value turned out to be 0.68 U/mg.
